Experimental data taken from PubChem BioAssay AID328 (DTP/NCI, 2004).
Several values for one entry are separate records, joined by “and”; a condition that tells them apart may be missing. Equal values may be shown once. Inconclusive results and toxic doses are left out. Rule for the calls: active = survival T/C of 150% or more; inactive = T/C below 125% in these data.

Tested on: BDF1 mice, P388 leukemia ip, median survival T/C
Assay: NCI In Vivo Anticancer Drug Screen. Data for tumor model P388 Leukemia (intraperitoneal) in B6D2F1 (BDF1) mice
Conditions: endpoint: median survival time, higher = longer survival
In short: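 Vehicle-dosed animals serve as the reference; survival of compound-dosed, tumour-implanted mice is divided by it.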

[1] = dose: 50.0 mg/kg/injection, schedule: Q01DX009 (ip), vehicle: saline with Tween-80
[2] = dose: 100.0 mg/kg/injection, schedule: Q01DX009 (ip), vehicle: saline with Tween-80
[3] = dose: 25.0 mg/kg/injection, schedule: Q01DX009 (ip), vehicle: saline with Tween-80

Measured: T/C

Oc1ccc(Cl)c2cccnc12
inactive: dose: 12.5 mg/kg/injection, schedule: Q01DX010 (ip), vehicle: carboxymethylcellulose (CMC) 104 % of control | dose: 25.0 mg/kg/injection, schedule: Q01DX010 (ip), vehicle: carboxymethylcellulose (CMC) 104 % of control | dose: 50.0 mg/kg/injection, schedule: Q01DX010 (ip), vehicle: carboxymethylcellulose (CMC) 109 % of control

CCOC(=O)C(C)[P+](c1ccccc1)(c1ccccc1)c1ccccc1 (configuration not stated)
inactive: dose: 1.0 mg/kg/injection, schedule: Q01DX009 (ip), vehicle: saline 115 % of control | dose: 1.5 mg/kg/injection, schedule: Q01DX009 (ip), vehicle: saline 103 % of control | dose: 1.5 mg/kg/injection, schedule: Q04DX003 (ip), vehicle: saline 90 % of control | dose: 2.25 mg/kg/injection, schedule: Q01DX009 (ip), vehicle: saline 100 % of control | dose: 3.0 mg/kg/injection, schedule: Q01DX009 (ip), vehicle: saline 118 % of control | dose: 3.0 mg/kg/injection, schedule: Q04DX003 (ip), vehicle: saline 104 % of control | dose: 6.0 mg/kg/injection, schedule: Q04DX003 (ip), vehicle: saline 90 % of control

Cc1nc2ccccc2nc1CC(=O)c1ccccc1
inactive: [1] 112 % of control | [2] 104 % of control | dose: 200.0 mg/kg/injection, schedule: Q01DX009 (ip), vehicle: saline with Tween-80 99 % of control

Cc1cccn2c(C)nnc12
inactive: [3] 110 % of control | [1] 101 % of control | [2] 99 % of control

CC(C)c1ccccc1OS(=O)(=O)c1ccc([N+](=O)[O-])cc1
inactive: dose: 100.0 mg/kg/injection, schedule: Q04DX003 (ip), vehicle: saline sonified 90 % of control | dose: 200.0 mg/kg/injection, schedule: Q04DX003 (ip), vehicle: saline sonified 95 % of control | dose: 400.0 mg/kg/injection, schedule: Q04DX003 (ip), vehicle: saline sonified 95 % of control

CCCCCCCCCCNCCS
inactive: dose: 8.0 mg/kg/injection, schedule: Q01DX010 (ip), vehicle: carboxymethylcellulose (CMC) 105 % of control | dose: 16.0 mg/kg/injection, schedule: Q01DX010 (ip), vehicle: carboxymethylcellulose (CMC) 110 % of control | dose: 32.0 mg/kg/injection, schedule: Q01DX010 (ip), vehicle: carboxymethylcellulose (CMC) 105 % of control

CCCCC(CC)COP(=O)(CC(CC)CCCC)OCC(CC)CCCC (configuration not stated)
inactive: [3] 100 % of control

CN(C)c1ccc(NC(=O)C(c2ccccc2)c2ccccc2)cc1
inactive: dose: 50.0 mg/kg/injection, schedule: Q01DX005 (ip), vehicle: saline 86 % of control | dose: 100.0 mg/kg/injection, schedule: Q01DX005 (ip), vehicle: saline 90 % of control | dose: 200.0 mg/kg/injection, schedule: Q01DX005 (ip), vehicle: saline 109 % of control

N#Cc1ccccc1NN=Nc1ccccc1-c1nc(N)nc(N)n1
inactive: dose: 12.0 mg/kg/injection, schedule: Q04DX003 (ip), vehicle: saline with Tween-80 115 % of control | dose: 12.0 mg/kg/injection, schedule: Q04DX003 (ip), vehicle: saline 108 % of control | dose: 25.0 mg/kg/injection, schedule: Q01DX009 (ip), vehicle: Klucel (hydroxypropylcellulose) (HPC) 100 % of control | dose: 25.0 mg/kg/injection, schedule: Q04DX003 (ip), vehicle: Klucel (hydroxypropylcellulose) (HPC) 104 % of control | dose: 25.0 mg/kg/injection, schedule: Q04DX003 (ip), vehicle: saline with Tween-80 105 % of control | dose: 25.0 mg/kg/injection, schedule: Q04DX003 (ip), vehicle: saline 112 % of control | dose: 35.0 mg/kg/injection, schedule: Q01DX009 (ip), vehicle: Klucel (hydroxypropylcellulose) (HPC) 100 % of control | dose: 35.0 mg/kg/injection, schedule: Q04DX003 (ip), vehicle: Klucel (hydroxypropylcellulose) (HPC) 95 % of control | dose: 50.0 mg/kg/injection, schedule: Q01DX009 (ip), vehicle: Klucel (hydroxypropylcellulose) (HPC) 90 % of control | dose: 50.0 mg/kg/injection, schedule: Q04DX003 (ip), vehicle: Klucel (hydroxypropylcellulose) (HPC) 104 % of control | dose: 50.0 mg/kg/injection, schedule: Q04DX003 (ip), vehicle: saline with Tween-80 115 % of control | dose: 50.0 mg/kg/injection, schedule: Q04DX003 (ip), vehicle: saline 116 % of control | dose: 75.0 mg/kg/injection, schedule: Q01DX009 (ip), vehicle: Klucel (hydroxypropylcellulose) (HPC) 90 % of control and 95 % of control | dose: 75.0 mg/kg/injection, schedule: Q04DX003 (ip), vehicle: Klucel (hydroxypropylcellulose) (HPC) 95 % of control | dose: 100.0 mg/kg/injection, schedule: Q01DX009 (ip), vehicle: Klucel (hydroxypropylcellulose) (HPC) 122 % of control

Cc1cc(C(=O)N/N=C/c2ccccc2O)c2cc(Br)ccc2n1
inactive: dose: 0.78 mg/kg/injection, schedule: Q01DX009 (ip), vehicle: saline with Tween-80 95 % of control | dose: 1.56 mg/kg/injection, schedule: Q01DX009 (ip), vehicle: saline with Tween-80 95 % of control | dose: 3.12 mg/kg/injection, schedule: Q01DX009 (ip), vehicle: saline with Tween-80 97 % of control

CCOC(=O)S(=O)(=O)c1ccc(C)cc1
inactive: dose: 6.25 mg/kg/injection, schedule: Q01DX009 (ip), vehicle: saline 90 % of control | dose: 12.5 mg/kg/injection, schedule: Q01DX009 (ip), vehicle: saline 90 % of control | dose: 25.0 mg/kg/injection, schedule: Q01DX009 (ip), vehicle: saline 115 % of control
